Test results taken from patent US9504672B2, “Compositions and methods for treating or preventing pneumovirus infection and associated diseases” (MicroDose Therapeutx, Inc., priority 2012, dated 2016).
Where two headings read alike, the source gives them in different places.

Legend:
[1] = Competitive slurry stability study between P-2 and P-3 (PXRD quantitative phase analysis); format: physicochemical; conditions: 50/50 acetonitrile/water, 25° C., over 10 days
[2] = Slurry of equal mixture of six phases in 75/25 acetone-water (PXRD); format: physicochemical; conditions: 25° C., 12 days, listed as P-3
Procedure: An equal powder mixture of six known phases (P-2, P-3, P-4, P-6, P-7 and P-8), 50 mg each were stirred in 75/25 acetone-water solvent (50 mL) at 25° C. over 12 days.

[3] = Critical water activity by DVS sorption/desorption isotherms; format: physicochemical; conditions: 20° C.
Text: The characteristic gravimetric loss of water is between 1-4.5% w/w.
The characteristic gravimetric loss of water for P-3 dihydrate is between 5.5-8.5% w/w. The profound difference of the DVS curves between the P-2 and P-3 forms can be utilized as a secondary technique for quantitative phase analysis of these forms.

[4] = Crystal (skeletal) density by nitrogen pycnometry; format: physicochemical
[5] = Particle size of micronized material (Sympatec HELOS & RODOS); format: physicochemical
[6] = Specific surface area (BET); format: physicochemical
[7] = Bulk powder density and flow indices (volumetric); format: physicochemical
[8] = Storage stability of micronized API in amber glass bottles (DSC, PXRD); format: physicochemical; conditions: 25° C./60% RH and 40° C./75% RH, through 12 months
Procedure: The micronized, P-3 dihydrate material was stored in 1.85 mL amber bottles with Teflon lined caps. The 25° C./60% RH and 40° C./75% RH simulated storage and worst-case storage conditions correspondingly.

[9] = Stability of lactose formulation at 40° C./75% RH, sealed glass bottles, 39 weeks; format: physicochemical; conditions: lactose formulation 6.3% w/w
Procedure: Formulation of the P-3 dihydrate form of the API with lactose (6.3% w/w) was placed on stability 40° C./75% RH in sealed glass bottles for 39 weeks. After samples removal, the lactose was removed by dissolution in purified water. The reference formulation was also subjected to the same lactose extraction procedure to eliminate the possibility for form conversion in water.

[10] = human, in vivo
Text: (§1) In summary, the MicroDose Inhaler operation comprises the drug powder contained in a protective blister until delivery. The blister is pierced externally and then placed in contact with a piezoelectric vibrator within the MicroDose Inhaler. When the patient inhales, an airflow sensor automatically turns on the piezo which provides energy to deaggregate the particles of powder and aerosolizes them into the inhalation airstream, providing synchronized delivery. The MicroDose Inhaler was triggered by pressure drop and programmed to produce a series of brief aerosol bursts of predetermined duration within the range of 0.1 to 2.0 seconds, preferably 0.1 seconds, early during each inhalation cycle and for 16 consecutive breaths. The studies were conducted as follows:
Study 3: A Double-Blind, Randomized, 3 Period Crossover, Single Ascending Dose Study to Assess the Safety and Tolerability of Inhaled MDT-637 P3 in Subjects with Intermittent or Mild-to-Moderate Persistent Asthma (Asthma Trial)
The primary objective of Study 3 was to assess the safety and tolerability of MDT-637 P3 when inhaled by subjects with Intermittent, or Mild-to-Moderate Persistent, Asthma. A secondary objective of Study 3 was to determine the rate and extent of systemic absorption of MDT-637 and trough nasal wash MDT-637 drug concentrations following dry powder inhalation dosing.
Each subject was dosed on 3 separate days during the study. Each subject received an initial dose of placebo (Period 1), followed by random allocation at Period 2 to a single dose of nasally inhaled MDT-637 P3 or double blind placebo. After an observation and furlough period, subjects returned for Period 3 to receive three doses of study drug (MDT-637 P3 or placebo) over a single day as listed below. The study consisted of 5 visits: Visit 1 (Screening), Visits 2, 3 and 4 (Dosing), and Visit 5 (Follow up); subjects were furloughed from the clinic for 6 up to 14 days between Visits 3 and 4 and 7-8 days between Visit 4 and 5. Subjects who met all of the inclusion criteria and none of the exclusion criteria (Table 19, FIG. 29) at Visit 1 were eligible to return for Visit 2 within 42 days of screening. Subjects were admitted to the study center twice, once for Visit 2 and again for Visit 4. Visit 5, was a safety follow up (outpatient) visit.
The doses of MDT-637 P3 were determined based on previous clinical experience in Study 1. Both placebo and active were administered as a dry powder for nasal inhalation via a face mask using a MicroDose Inhaler device. At Visit 2, all 10 patients were dosed with placebo Once Daily. At Visit 3, subjects were randomly allocated so that 8 subjects were dosed with MDT-637 P3 Once Daily 66 mcg and 2 subjects received double blind placebo. At Visit 4, subjects were again randomly allocated so that 8 subjects were dosed with MDT-637 TID 132 mcg and 2 subjects received double blind placebo.
Pharmacokinetic variables (Cmax, Tmax, AUC, T1/2) were evaluated based on blood samples drawn at Visit 4.

[11] = in vivo
Text: The purpose of the following studies was to assess the safety, tolerability, local and systemic pharmacokinetics of single and multiple doses of MDT-637 P3 in healthy volunteers and asthmatics.
as §1, with “breaths.” for “breaths. The studies were conducted as follows:”

[12] = for Total Imp/Deg: listed as P224-163-1; for number of impurity peaks: listed as P-3
Procedure: Forced degradation experiments consisted of placing solid samples of P-2 hydrate and P-3 dihydrate materials in sealed glass bottles at 120° C. for 7 days.

[13] = human, in vivo; remark: listed apart in the source
Procedure: The study consisted of 3 visits: Visit 1 (Screening), Visit 2 (Dosing) and Visit 3 (Follow up); subjects furloughed from the clinic between Visits 2 and 3.
Both active and matched placebo were administered via face mask inhalation from a proprietary delivery system (MicroDose inhaler).
Single doses were administered in the morning. TID doses will be administered at 6 hour intervals, with the 1st of the 3 doses administered in the morning.
Pharmacokinetic variables (Cmax, Tmax, AUC, T1/2) were evaluated based on blood samples drawn at Visit 2.

[14] = human, in vivo; remark: listed apart in the source
Procedure: Subjects were enrolled in cohorts of 12 subjects. […] The study consisted of 3 visits: Visit 1 (Screening), Visit 2 (Dosing), Visit 3 (Follow up) and subjects remained at the study site for pharmacokinetic (PK) sampling, spirometry, and safety assessments. […] Day 1 was the first day of dosing and Day 10 was the final day of dosing, following which subjects remained at the study site for 24 hours following the last dose for PK sampling and spirometry. Visit 3 was a follow-up visit, 7 to 10 days after the last dose. Cohorts were dosed as follows:
The first doses for twice daily (BID) and three times daily (TID) were administered in the morning, starting at approximately 0700 hours on each day of dosing. BID doses were administered at 12 hour intervals and TID doses were administered at 6 hour intervals each dose day.
Pharmacokinetic endpoints (Cmax, Tmax, AUC, T1/2) and dose proportionality was assessed based on a limited number of plasma samples following the first dose on Day 1 and last dose on Day 10
Pharmacokinetic variables (Cmax, Tmax, AUC, T1/2) were evaluated based on blood samples drawn following first dose (Days 1-2) and last dose (Days 10-11).

[15] = clinical; conditions: human, in vivo, 132 ug
[16] = 40° C./75% RH, 4 weeks

Cc1nnnn1/N=C/c1ccc(O)c(C(c2ccc(O)cc2)c2cc(/C=N/n3nnnc3C)ccc2O)c1 [P-3 dihydrate, phenol, 2,2′-[(4-hydroxyphenyl)methylene]bis[4-[[(5-methyl-1H-tetrazol-1-yl)imino]methyl]]]
form conversion in competitive slurry [1]: converts to P-2 | form conversion / stability in six-phase slurry [2]: convert to P-2 hydrate | transition point (monohydrate) ([3]; 1% RH steps, first of two transition points): approximately 3 % RH | transition point (dihydrate) ([3]; 1% RH steps, second of two transition points): ~13 % RH | Characteristic relative humidity of dehydration (20° C.) [3]: 3-17% | Crystal (skeletal) density [4]: 1.61 g/mL | Characteristic medium volume particle size (micronized) [5]: 1.5 μm | Specific surface area [6]: 11.0 m^2/g | Carr index [7]: 27.5% | Hausner ratio [7]: 1.38 | Poured bulk powder density [7]: 0.22 g/mL | Tapped bulk powder density [7]: 0.30 g/mL | change in form (DSC and PXRD) [8]: no change in form was observed | change of crystal form in formulation with lactose [9]: stable against solid-state conversion | clinically significant changes in labs, vital signs, ECGs, physical exams [10]: No clinically significant changes | clinically significant changes in pulmonary function / pulmonary AEs [10]: No clinically significant changes in pulmonary function or reports of pulmonary AEs | pharmacokinetics, asthmatic vs healthy population [10]: comparable between the healthy and asthmatic population | subjects reporting adverse events ([10]; 3 separate dosing days): 2/10 | subjects reporting no adverse events ([10]; 3 separate dosing days): 8/10 | clinically significant changes in ECG, laboratory values, vital signs or physical exam [11]: no clinically significant changes | pulmonary adverse events or changes in pulmonary function [11]: no pulmonary adverse events or changes in pulmonary function were observed | serious adverse events [11]: no serious adverse events were observed | systemic exposure [11]: highly consistent and low systemic exposure | Grand Total ([12]; 120C/7D): 99.8 Area % | Total Imp/Deg ([12]; 120C/7D): 6.49 Area % | Impurity/Degradation Product A ([12]; 7 days): 0.12 Area % | Impurity/Degradation Product B ([12]; 7 days): 3.60 Area % | Impurity/Degradation Product C ([12]; 7 days): 0.17 Area % | Impurity/Degradation Product D ([12]; 7 days): 0.48 Area % | Impurity/Degradation Product E ([12]; 7 days): 0.28 Area % | Impurity/Degradation Product F ([12]; 7 days): 0.08 Area % | Impurity/Degradation Product G ([12]; 7 days): 0.05 Area % | Impurity/Degradation Product H ([12]; 7 days): 0.43 Area % | Impurity/Degradation Product I ([12]; 7 days): 0.17 Area % | Impurity/Degradation Product K ([12]; 7 days): 0.13 Area % | Impurity/Degradation Product L ([12]; 7 days): 0.06 Area % | Impurity/Degradation Product M ([12]; 7 days): 0.09 Area % | Impurity/Degradation Product N ([12]; 7 days): 0.07 Area % | Impurity/Degradation Product O ([12]; 7 days): 0.37 Area % | Impurity/Degradation Product P ([12]; 7 days): 0.36 Area % | Impurity/Degradation Product Q ([12]; 7 days): 0.05 Area % | Grand Total ([12]; CTRL): 99.9 Area % | Total Imp/Deg ([12]; CTRL): 1.16 Area % | number of impurity peaks ([12]; control): 6 peaks | number of impurity peaks ([12]; stressed sample, 120° C. for 7 days): 16 peaks | changes in pulmonary function / pulmonary AEs [13]: No significant changes in pulmonary function or reports of pulmonary AEs | clinically significant changes in labs, vital signs, ECGs, physical exams [13]: No clinically significant changes | treatment emergent adverse event considered possibly related by PI [13]: Mild dizziness | nasal wash levels ([13]; 24 h): > MDT-637 P3's IC50 for RSV | CVs of PK exposure [14]: 15-30% | clinically significant changes in labs, vital signs, ECGs, physical exams [14]: No clinically significant changes | TEAEs considered related to study treatment ([14]; 10 days): 5 TEAEs | subjects reporting TEAEs ([14]; 10 days): 13 subjects | subjects reporting no TEAEs ([14]; 10 days): 25 subjects | total TEAEs overall ([14]; 10 days): 20 TEAEs | AUC(0-t) [15]: 1.16 ng·h/mL | Assay ([16]; open dish, listed as P-3): 96.7% | Rel Subs ([16]; open dish, listed as P-3): 0.67% | Water ([16]; open dish, listed as P-3): 5.9% | change of form / solid-state stability (DSC and PXRD) ([16]; open wide glass bottles): no change of form | chemical stability ([16]; open wide glass bottles): Acceptable chemical stability
